Measured values: patent US6440980B1, “Synergistic inhibition of viral replication by long-chain hydrocarbons and nucleoside analogs” (Avanir Pharmaceuticals, priority 1996, dated 2002)
Read-outs that look alike come from different tables or passages of the source.

Columns and labels:
influenza virus = assay type: in vivo, human; settings: for highest recorded body temperature (mean): erucyl alcohol 0.15 mM five times per day, erucamide 1.5 mM three times per day, untreated 38.9; for mean duration of flu symptoms: untreated 3 days
HSV-2 = assay: Inhibition of HSV-2 plaque formation in Vero cells; settings: for Percent Inhibition of Plaque Formation: PLURONIC F-68 suspension added 12 hr before HSV-2 (erucyl alcohol with the virus), Toxic = monolayer destroyed within 24 hr; for inhibition of viral plaque production at concentrations that were not cytotoxic: 0.2 μM stearyl alcohol, 2 μM arachidyl alcohol; for 50% Inhibition Concentration (mM): alcohol suspension in PLURONIC F-68, Vero cells incubated 12 hr before HSV-2, linear regression, Toxic = monolayer destroyed by end of 12-hour incubation with at least 1.5 mM
Vero cells [1] = settings: African green monkey
all cell lines tested = assay: Cytotoxicity in mammalian cell cultures; settings: for IC50: read-out: IC50 (cellular toxicity by chain length)
Description: Three assays were used to quantitate the effects of aliphatic alcohols on cell survival and proliferation: 1) counting cells with a hemocytometer and determining the number of cells that exclude trypan blue; 2) measuring the incorporation of ^3H-thymidine into cellular DNA by adding ^3H-thymidine (from New England Nuclear) to the culture medium, lysing the cells with water and harvesting the DNA onto filter paper; and 3) measuring total cellular protein using a sulforhodamine assay adapted for use in 96-well microtiter plates (Skehan et al., J. Natl. Cancer Inst. […] All of these methods are well known cell viability and cytotoxicity assays.

B cell hybridoma (MBI-9) = assay: 3H-thymidine incorporation into DNA of B cell hybridoma; assay type: cell-based, murine; settings: Mus musculus, read-out: IC50 (3H-thymidine incorporation)
vaccinia virus = assay: microbe, parasite or virus in culture; assay type: cell-based, vaccinia virus (WR strain); settings: for EC50: read-out: EC50 for inhibition of vaccinia virus replication
HSV-1 = HSV-1 PFU production in Vero cell cultures; assay type: cell-based, HSV-1 (MacIntyre strain)
Vero cells [2] = assay: Cytotoxicity to Vero cells (monolayer integrity, trypan blue exclusion); settings: surfactant suspension
[3] = test system: human foreskin fibroblasts; assay: Cell proliferation (cytostasis), sulforhodamine staining; assay type: cell-based; settings: 1,000 cells/well, 96-hours incubation
Method: The effects of n-docosanol and n-docosane suspensions on cell proliferation (cytostasis) were quantitated using the sulforhodamine staining assay on cultures of human foreskin fibroblasts incubated in 96-well plates.
Foreskin fibroblasts were plated with or without aliphatic alcohol suspensions or control surfactant suspensions at 1,000 cells/well (FIG. 6A and FIG. 7) or at 30,000 cells/well (FIG. 6B) in 96 well plates. After incubation for 72 hr or 96 hr at 37° C., cells were precipitated with trichloroacetic acid, stained with sulforhodamine and quantitated by measuring the OD540 in a microtiter plate reader.

[4] = Human alphaherpesvirus 2, Vero, read-out: Percent Inhibition of Plaque Formation
[5] = Human alphaherpesvirus 2, Vero, read-out: 50% Inhibition Concentration (mM)
[6] = 15 mM n-docosanol, 500 PFU/culture, three days, read-out: EC90 for inhibition of HSV-1 PFU production in the presence of n-docosanol
[7] = Orthopoxvirus vaccinia, Vero, 72 h
[8] = Human alphaherpesvirus 1, Vero, 72 h, read-out: EC90 for inhibition of HSV-1 PFU production, drug used alone

CCCCCCCC/C=C\CCCCCCCCCCCCO [erucyl alcohol, cis-13-docosen-1-ol]
highest recorded body temperature (mean) (influenza virus): 37.8 °C
mean duration of flu symptoms (influenza virus): 1.7 days
frequency of fever per flu episode (influenza virus; in vivo): one to three
EC50 lower than the concentration required for n-docosanol (HSV-2; 0.15 mM vs 9 mM): 60 fold
Percent Inhibition of Plaque Formation (HSV-2; 2 mM): Toxic
Percent Inhibition of Plaque Formation (HSV-2; 4 mM): Toxic
Percent Inhibition of Plaque Formation (HSV-2; 8 mM): Toxic
Percent Inhibition of Plaque Formation (HSV-2; 15 mM): Toxic
direct virucidal effect (HSV-2; HSV-2 incubated with the suspension for 2 hours, subsequent plaque formation on Vero cells): did not inactivate the virus
inhibition at 250 µM (HSV-2; [4]): 70%
inhibition at 500 µM (HSV-2; [4]): 91%
inhibition at 1000 µM (HSV-2; [4]): 93%
EC50 (HSV-2; Human alphaherpesvirus 2, Vero, read-out: effective concentration required to inhibit plaque formation by 50% (EC50), surfactant suspension, Example 5): 0.15 mM
concentrations tolerable to the cells (Vero cells [1]): ≤ 1000 µM
concentrations toxic to Vero cells (cells rounded and detached) (Vero cells [1]): 2000 to 15000 µM

CCCCCCCCCCCCCCCCCCO [stearyl alcohol]
IC50 (all cell lines tested): < 35 µM
inhibition of viral plaque production at concentrations that were not cytotoxic (HSV-2): no inhibition of viral plaque production
50% Inhibition Concentration (mM) (HSV-2): Toxic**
IC50 (B cell hybridoma (MBI-9)): < 35 µM

CCCCCCCCCCCCCCCCCCCCCCCCO [lignoceryl alcohol, n-tetracosanol]
cytotoxicity of the suspensions (in words) (all cell lines tested; surfactant suspensions): same minimal level of cytotoxicity
EC50 (HSV-2; [5]): 14.1 mM

CCCCCCCCCCCCCCCCCCCCCO [heneicosanol]
IC50 (all cell lines tested): > 15000 µM
cytotoxicity of the suspensions (in words) (all cell lines tested; surfactant suspensions): same minimal level of cytotoxicity
EC50 (HSV-2; [5]): 16 mM

O=C(O)P(=O)(O)O [PFA, phosphonoformic acid]
interaction of n-docosanol with the antiviral activity of PFA against vaccinia virus (vaccinia virus; presence or absence of n-docosanol or PLURONIC F-68): no drug-drug interaction
EC90 (HSV-1; [6]): 17 µM
EC90 (HSV-1; Human alphaherpesvirus 1, Vero, 72 h, control cultures without n-docosanol, 500 PFU/culture, three days, read-out: EC90 for inhibition of HSV-1 PFU production, drug used alone): ~18 µM

CCCCCCCCCCCCCCCCCCCCCCCCCCCCO [n-octacosanol]
cytotoxicity of the suspensions (in words) (all cell lines tested): same minimal level of cytotoxicity
EC50 (HSV-2; [5]): 10.5 mM

CCCCCCCC/C=C\CCCCCCCCCCCC(N)=O [erucamide, cis-13-docosenoamide]
concentrations tolerable to the cells (Vero cells [2]): ≤ 1700 µM
highest recorded body temperature (mean) (influenza virus): about 37 °C
mean duration of flu symptoms (influenza virus): two
inhibition at 30 µM (HSV-2; [4]): 34%
inhibition at 590 µM (HSV-2; [4]): 42%
inhibition at 890 µM (HSV-2; [4]): 44%
inhibition at 1200 µM (HSV-2; [4]): 58%
inhibition at 1500 µM (HSV-2; [4]): 68%
inhibition at 1700 µM (HSV-2; [4]): 78%
concentrations toxic to Vero cells (cells rounded and detached) (Vero cells [1]): ≥ 3000 µM

Nc1ncnc2c1ncn2[C@@H]1O[C@H](CO)[C@@H](O)[C@@H]1O [Ara-A, Adenine 9-β-D-arabinofuranoside]
EC50 (vaccinia virus; control cultures (medium or PLURONIC F-68), 3 days post-infection): ~20 µM
reduction of EC90 by n-docosanol (HSV-1; 15 mM n-docosanol): 16 fold
EC90 (HSV-1; [6]): ~1.4 µM
EC90 (HSV-1; control cultures without n-docosanol, 500 PFU/culture, three days, read-out: EC90 for inhibition of HSV-1 PFU production, drug used alone): ~22 µM

CCCCCCCCCCCCCCCCCCCCCC(=O)O [n-docosanoic acid]
concentrations tolerable to the cells (Vero cells [2]): ≤ 2000 µM
Percent Inhibition of Plaque Formation (HSV-2; 4 mM): Toxic
Percent Inhibition of Plaque Formation (HSV-2; 8 mM): Toxic
Percent Inhibition of Plaque Formation (HSV-2; 15 mM): Toxic^†
inhibition at 500 µM (HSV-2; [4]): 26%
inhibition at 1000 µM (HSV-2; [4]): 16%
inhibition at 2000 µM (HSV-2; [4]): 30%

O=c1[nH]c(=O)n([C@H]2C[C@H](O)[C@@H](CO)O2)cc1C(F)(F)F [Trifluridine, trifluridine deoxyriboside]
EC50 (vaccinia virus; [7]): ~2 µM
reduction of EC90 by n-docosanol (HSV-1; 15 mM n-docosanol): 5 fold
EC90 (HSV-1; [8]): ~6.8 µM
EC90 (HSV-1; read-out: EC90 for inhibition of HSV-1 PFU production in the presence of n-docosanol, 15 mM n-docosanol, 500 PFU/culture, three days): ~1.35 µM

CCCCCCCCCCCCCCCCCCCCCC [n-docosane]
inhibition at 1000 µM (HSV-2; [4]): 28%
inhibition at 2000 µM (HSV-2; [4]): 31%
inhibition at 4000 µM (HSV-2; [4]): 42%
inhibition at 8000 µM (HSV-2; [4]): 55%
inhibition at 15000 µM (HSV-2; [4]): 58%
antiproliferation effects compared to the surfactant control [3]: minimal antiproliferation effects

CCCCCCCCCCCCCCCCCCCCO [arachidyl alcohol]
IC50 (all cell lines tested): 1500 µM
cytotoxicity of the suspensions (in words) (all cell lines tested; surfactant suspensions): extremely cytotoxic
inhibition of viral plaque production at concentrations that were not cytotoxic (HSV-2): no inhibition of viral plaque production
50% Inhibition Concentration (mM) (HSV-2): Toxic**
concentration that was not cytotoxic (Vero cells [1]): 2 µM
IC50 (B cell hybridoma (MBI-9); 48 hr incubation): ~1700 µM

NC(=O)c1ncn([C@@H]2O[C@H](CO)[C@@H](O)[C@H]2O)n1 [ribavirin]
EC50 (vaccinia virus; [7]): ~25 µM
reduction of EC90 by n-docosanol (HSV-1; 15 mM n-docosanol): 75 fold
EC90 (HSV-1; [6]): ~0.33 µM
EC90 (HSV-1; [8]): ~24.6 µM
